Results from patent US20230069963A1, “PYRAZOLO[1,5-A]PYRIMIDINE MACROCYCLIC COMPOUND” (priority 2018, published 2023).

These compounds were tested on F protein D486N mutant strain of RSV A2 strain (assay: not given). Conditions: Hep2 cells, incubated for 4 days, CPE detected with XTT assay (absorbance 450 nm); read-out: EC50 (nmol/L) against F protein D486N mutant strain of RSV A2 strain.
Format: cell-based, respiratory syncytial virus (RSV)

Row | Compound | EC50 [nmol/L]
1 | CC1CCNC(=O)COc2ccc(Cl)cc2C(=O)N2CCCCC2c2cc3nc(C4CC4)cc1n3n2 (single isomer, unassigned) [Example 124a] | 7.23
2 | Cc1ccc2c(c1)C(=O)N1CCCCC1c1cc3nc(C4CC4)cc(n3n1)C(C)CCNC(=O)CO2 (single isomer, unassigned) [Example 126a] | 2.05
3 | CN1CCNC(C(F)(F)F)COc2ccc(Cl)cc2C(=O)N2CCCCC2c2cc3nc(N4CC(N)C4)cc1n3n2 (single isomer, unassigned) [Example 339] | 4.11
4 | CN1CCNC(=O)COc2ccc(F)cc2C(=O)N2CCCCC2c2cc3nc(N4CCC(N)C4)cc1n3n2 [Example 1, (18aS)-13-[(3S)-3-aminopyrrolidin-1-yl]-2-fluoro-11-methyl-8,9,10,11,19,20,21,22-octahydro-18aH,24H-18,15-(metheno)pyrido[2,1-l]pyrimido[6,1-h][1,4,7,9,10,13]benzoxapentaazacyclohexadecine-7,24(6H)-dione] | 3.17
5 | CN1CCNC(=O)COc2ccc(F)cc2C(=O)N2CCCC[C@H]2c2cc3nc(N4CCC4)cc1n3n2 [Example 2, (18aS)-13-(azetidin-1-yl)-2-fluoro-1-methyl-8,9,10,11,19,20,21,22-octahydro-18aH,24H-18,15-(metheno)pyrido[2,1-l]pyrimido[6,1-h][1,4,7,9,10,13]benzoxapentaazacyclohexadecine-7,24(6H)-dione] | 3.06
6 | CN1CC(=O)NCCOc2ccc(F)cc2C(=O)N2CCCC[C@H]2c2cc3nc(N4CC(N)C4)cc1n3n2 [Example 37, (18aS)-13-(3-aminoazetidin-1-yl)-2-fluoro-1-methyl-7,8,10,11,19,20,21,22-octahydro-8aH,24H-18,15-(metheno)pyrido[2,1-l]pyrimido[6,1-h][1,4,7,9,10,13]benzoxapentaazacyclohexadecine-9,24(6H)-dione] | 10.1
7 | CN1CCNC(=O)COc2ccc(Cl)cc2C(=O)N2CCCC[C@H]2c2cc3nc(N4CC(O)C4)cc1n3n2 [Example 39] | 0.867
8 | [2H]C([2H])([2H])c1ccc2c(c1)C(=O)N1CCCC[C@H]1c1cc3nc(N4CC(O)C4)cc(n3n1)N(C)CCNC(=O)CO2 [Example 53, (18aS)-13-(3-hydroxyazetidin-1-yl)-1-methyl-2-trideuteriomethyl-8,9,10,11,19,20,21,22-octahydro-18aH,24H-18,15-(metheno)pyrido[2,1-l]pyrimido[6,1-h][1,4,7,9,10,13]benzoxapentaazacyclohexadecine-7,24(6H)-dione] | 1.05
9 | CN1CCCNC(=O)COc2ccc(F)cc2C(=O)N2CCCC[C@H]2c2cc3nc(N4CC(N)C4)cc1n3n2 [Example 57, (19aS)-14-(3-aminoazetidin-1-yl)-2-fluoro-12-methyl-9,10,11,12,20,21,22,23-octahydro-6H, 19aH,25H-19,16-(metheno)pyrido[2,1-m]pyrimido[6,1-i][1,4,8,10,11,14]benzoxapentaazacycloheptadecine-7,25(8H)-dione] | 12.6
10 | CN1CCNC(=O)COc2ccc(F)cc2C(=O)N2CCCC[C@H]2c2cc3nc(C4CC4)cc1n3n2 [Example 90, (18aS)-13-cyclopropyl-2-fluoro-11-methyl-8,9,10,11,19,20,21,22-octahydro-18aH,24H-18,15-(metheno)pyrido[2,1-l]pyrimido[6,1-h][1,4,7,9,10,13]benzoxapentaazacyclohexadecine-7,24(6H)-dione] | 2.8
11 | CN1CCNC(=O)COc2ccc(Cl)cc2C(=O)N2CCCCC2c2cc3nc(C4CC(O)C4)cc1n3n2 [Example 112, (18aS)-2-chloro-13-(trans-3-hydroxycyclobutyl)-11-methyl-8,9,10,11,19,20,21,22-octahydro-18aH,24H-18,15-(metheno)pyrido[2,1-l]pyrimido[6,1-h][1,4,7,9,10,13]benzoxapentaazacyclohexadecine-7,24(6H)-dione] | 0.704
12 | Cc1ccc2c(c1)C(=O)N1CCCC[C@H]1c1cc3nc(N4CC(O)C4)cc(n3n1)N(C)CCNCCO2 [Example 171, (18aS)-13-(3-hydroxyazetidin-1-yl)-2,11-dimethyl-6,7,8,9,10,11,19,20,21,22-decahydro-18aH,24H-18,15-(metheno)pyrido[2,1-l]pyrimido[6,1-h][1,4,7,9,10,13]benzoxapentaazacyclohexadecin-24-one] | 4.19
13 | CN1CCOCCOc2ccc(Cl)cc2C(=O)N2CCCC[C@H]2c2cc3nc(N4CC(N)C4)cc1n3n2 [Example 298, (18aS)-13-(3-aminoazetidin-1-yl)-2-chloro-11-methyl-6,7,10,11,19,20,21,22-octahydro-9H,18aH,24H-18,15-(metheno)pyrido[2,1-l]pyrimido[6,1-h][1,4,7,9,10,13]benzodioxatetraazacyclohexadecin-24-one] | 3.13
14 | CN1CCn2ccnc2COc2ccc(Cl)cc2C(=O)N2CCCC[C@H]2c2cc3nc(N4CC(N)C4)cc1n3n2 [Example 335, (20aS)-15-(3-amninoazetidin-1-yl)-2-chloro-13-methyl-12,13,21,22,23,24-hexahydro-6H,11H, 20aH,26H-20,17-(metheno)imidazo[2,1-c]pyrido[2,1-l]pyrimido[6,1-h][1,4,7,9,10,13]benzoxapentaazacyclohexadecin-26-one] | 10.6
15 | Cc1ccc2c(c1)C(=O)N1CCCCC1c1cc3nc(N4CC(O)C4)cc(n3n1)N(C)CC(C(F)(F)F)NCCO2 [Example 348, (18aS)-13-(3-hydroxyazetidin-1-yl)-2,11-dimethyl-9-(trifluoromethyl)-6,7,8,9,10,11,19,20,21,22-decahydro-18aH,24H-18,15-(metheno)pyrido[2,1-l]pyrimido[6,1-h][1,4,7,9,10,13]benzoxapentaazacyclohexadecin-24-one] | 8.2
16 | (18aS)-13-(trans-3-hydroxycyclobutyl)-11-methyl-2-trideuteriomethyl-8,9,10,11,19,20,21,22-octahydro-18aH,24H-18,15-(metheno)pyrido[2,1-l]pyrimido[6,1-h][1,4,7,9,10,13]benzoxapentaazacyclohexadecine-7,24(6H)-dione [Example 118t] | 0.72

Each compound was assayed on RSV ATCC VR-1540 (A2) (assay: microbe, parasite or virus in culture). Conditions: Hep2 cells, incubated for 4 days, CPE detected with XTT assay (absorbance 450 nm); read-out: EC50 (nmol/L) against RSV A2 strain.
Format: cell-based

Row | Compound | EC50 [nmol/L]
17 | (18aS)-2-fluoro-13-(cis-3-hydroxycyclobutyl)-11-methyl-8,9,10,11,19,20,21,22-octahydro-l 8aH,24H-18,15-(metheno)pyrido[2,1-l]pyrimido[6,1-h][1,4,7,9,10,13]benzoxapentaazacyclohexadecine-7,24(6H)-dione [Example 109] | 1.14
18 | (18aS)-13-(azetidin-1-yl)-2-fluoro-7-(hydroxymethyl)-11-methyl-6,7,8,9,10,11,19,20,21,22-decahydro-18aH,24H-18,15-(metheno)pyrido[2,1-l]pyrimido[6,1-h][1,4,7,9,10,13]benzoxapentaazacyclohexadecin-24-one [Example 146] | 20.8
19 | (23aS)-18-(azetidin-1-yl)-8-fluoro-16-methyl-1,3,4,11,12,13,14,15,16,23a-decahydro-2H,6H-23,20-(metheno)pyrido[1,2-b]pyrimido[1,6-f][2,5,6,8,11]benzopentaazacyclopentadecin-6-one [Example 148] | 28.9

Same assay, conditions: human respiratory syncytial virus, HEp-2, 96 h; Hep2 cells, incubated for 4 days, CPE detected with XTT assay (absorbance 450 nm); read-out: EC50 (nmol/L) against RSV A2 strain

Row | Compound | EC50 [nmol/L]
20 | CN1CCNC(=O)COc2ccc(F)cc2C(=O)N2CCCCC2c2cc3nc(N4CCC(N)C4)cc1n3n2 [Example 1, (18aS)-13-[(3S)-3-aminopyrrolidin-1-yl]-2-fluoro-11-methyl-8,9,10,11,19,20,21,22-octahydro-18aH,24H-18,15-(metheno)pyrido[2,1-l]pyrimido[6,1-h][1,4,7,9,10,13]benzoxapentaazacyclohexadecine-7,24(6H)-dione] | 2.07
21 | CN1CCNC(=O)COc2ccc(F)cc2C(=O)N2CCCC[C@H]2c2cc3nc(N4CCC4)cc1n3n2 [Example 2, (18aS)-13-(azetidin-1-yl)-2-fluoro-1-methyl-8,9,10,11,19,20,21,22-octahydro-18aH,24H-18,15-(metheno)pyrido[2,1-l]pyrimido[6,1-h][1,4,7,9,10,13]benzoxapentaazacyclohexadecine-7,24(6H)-dione] | 0.8
22 | CN1CCCNC(=O)COc2ccc(F)cc2C(=O)N2CCCC[C@H]2c2cc3nc(N4CC(N)C4)cc1n3n2 [Example 57, (19aS)-14-(3-aminoazetidin-1-yl)-2-fluoro-12-methyl-9,10,11,12,20,21,22,23-octahydro-6H, 19aH,25H-19,16-(metheno)pyrido[2,1-m]pyrimido[6,1-i][1,4,8,10,11,14]benzoxapentaazacycloheptadecine-7,25(8H)-dione] | 2.11
23 | Cc1nnc2n1CCN(C)c1cc(N3CCC3)nc3cc(nn13)[C@@H]1CCCCN1C(=O)c1cc(Cl)ccc1OC2 [Example 329, (20aS)-15-(azetidin-1-yl)-2-chloro-9,13-dimethyl-12,13,21,22,23,24-hexahydro-6H,11H,20aH,26H-20,17-(metheno)pyrido[2,1-l]pyrimido[6,1-h][1,2,4]triazolo[3,4-c][1,4,7,9,10,13]benzoxapentaazacyclohexadecin-26-one] | 1.61
24 | CN1CCc2cn(nn2)Cc2ccc(Cl)cc2C(=O)N2CCCC[C@H]2c2cc3nc(N4CC(N)C4)cc1n3n2 [Example 330, (19aS)-14-(3-aminoazetidin-1-yl)-2-chloro-12-methyl-11,12,20,21,22,23-hexahydro-10H,19aH-6,9:19,16-di(metheno)pyrido[2,1-m]pyrimido[6,1-i][2,3,4,8,10,11,14]benzoheptaazacycloheptadecin-25(5H)-one] | 19.8
25 | CN1CCCC(=O)NCC(C)(c2ccc(F)cc2)C(=O)N2CCCC[C@H]2c2cc3nc(N4CC(N)C4)cc1n3n2 (stereo partly drawn) [Example 371, (18aS)-3-(3-aminoazetidin-1-yl)-12-(4-fluorophenyl)-5,12-dimethyl-7,8,11,12,16,17,18,18a-octahydro-5H,15H-19,1-(metheno)pyrido[1,2-m]pyrimido[1,6-b][1,2,4,9,13]pentaazacyclopentadecine-9,13(6H,10H)-dione] | 12.8
26 | CN1CCCCS(=O)(=O)NC(C)(c2ccc(F)cc2)C(=O)N2CCCC[C@H]2c2cc3nc(N4CC(O)C4)cc1n3n2 (stereo partly drawn) [Example 377, (18aS)-12-(4-fluorophenyl)-3-(3-hydroxyazetidin-1-yl)-5,12-dimethyl-6,7,8,9,11,12,16,17,18,18a-decahydro-5H,15H-19,1-(metheno)-10λ^6-pyrido[1,2-e]pyrimido[1,6-i][1,2,5,8,9,11]thiapentaazacyclopentadecine-10,10,13-trione] | 22.7
27 | CN1CCCCOCC(C)(c2cccnc2)C(=O)N2CCCCC2c2cc3nc(N4CC(N)C4)cc1n3n2 [Example 380, (18aS)-3-(3-aminoazetidin-1-yl)-5,12-dimethyl-12-(pyridin-3-yl)-6,7,8,9,11,12,16,17,18,18a-decahydro-5H,13H,15H-19,1-(metheno)pyrido[,2-e]pyrimido[1,6-i][1,5,8,9,11]oxatetraazacyclopentadecin-13-one] | 8.77
